Reference: patent US12522583B2, “Benzimidazole derivatives and aza-benzimidazole derivatives as Janus kinase 2 inhibitors and uses thereof” (Dana-Farber Cancer Institute, Inc., priority 2018, dated 2026)

Assays:
Test in all cases: KINOMEscan
Type in all cases: binding
Settings in all cases: read-out: percent control
[1] = target: ERK1 (Homo sapiens (Human), UniProt P27361)
Excerpt: (§1) Example 2. In Vitro Kinase Selectivity Profiling of the Compounds of the Present Disclosure

[2] = target: ZAK (Homo sapiens (Human), UniProt Q9NYL2)
Excerpt: as §1

[3] = target: FRK (Homo sapiens (Human), UniProt P42685)
Excerpt: as §1

[4] = target: PFPK5(P.falciparum) (Plasmodium falciparum (isolate 3D7), UniProt P61075)
Excerpt: as §1

[5] = target: TSSK3 (Homo sapiens (Human), UniProt Q96PN8)
Excerpt: as §1

[6] = target: RIOK2 (Homo sapiens (Human), UniProt Q9BVS4)
Excerpt: as §1

[7] = target: JAK1(JH1domain-catalytic) (Homo sapiens (Human), UniProt P23458)
Excerpt: as §1

[8] = target: RSK3(Kin.Dom.1-N-terminal) (Homo sapiens (Human), UniProt Q15349)
Excerpt: as §1

[9] = target: SgK110 (Homo sapiens (Human), UniProt P0C264)
Excerpt: as §1

[10] = target: PDPK1 (Homo sapiens (Human), UniProt O15530)
Excerpt: as §1

[11] = target: TRKA (Homo sapiens (Human), UniProt P04629)
Excerpt: as §1

[12] = target: PIKFYVE (Homo sapiens (Human), UniProt Q9Y2I7)
Excerpt: as §1

[13] = target: IKK-beta (Homo sapiens (Human), UniProt O14920)
Excerpt: as §1

[14] = target: ABL1(F317L)-nonphosphorylated (Homo sapiens (Human), UniProt P00519, F317L)
Excerpt: as §1

[15] = target: ERK2 (Homo sapiens (Human), UniProt P28482)
Excerpt: as §1

[16] = target: PRKX (Homo sapiens (Human), UniProt P51817)
Excerpt: as §1

[17] = target: EGFR(G719C) (Homo sapiens (Human), UniProt P00533, G719C)
Excerpt: as §1

[18] = target: FGFR4 (Homo sapiens (Human), UniProt P22455)
Excerpt: as §1

[19] = target: ERBB3 (Homo sapiens (Human), UniProt P21860)
Excerpt: as §1

[20] = target: MARK1 (Homo sapiens (Human), UniProt Q9P0L2)
Excerpt: as §1

[21] = target: PCTK1 (Homo sapiens (Human), UniProt Q00536)
Excerpt: as §1

[22] = target: CAMKK1 (Homo sapiens (Human), UniProt Q8N5S9)
Excerpt: as §1

[23] = target: CDC2L2 (Homo sapiens (Human), UniProt Q9UQ88)
Excerpt: as §1

[24] = target: RAF1 (Homo sapiens (Human), UniProt P04049)
Excerpt: as §1

[25] = target: CSF1R (Homo sapiens (Human), UniProt P07333)
Excerpt: as §1

[26] = target: SGK (Homo sapiens (Human), UniProt O00141)
Excerpt: as §1

[27] = target: MYLK (Homo sapiens (Human), UniProt Q15746)
Excerpt: as §1

[28] = target: OSR1 (Homo sapiens (Human), UniProt O95747)
Excerpt: as §1

[29] = target: CLK2 (Homo sapiens (Human), UniProt P49760)
Excerpt: as §1

[30] = target: PKAC-alpha (Homo sapiens (Human), UniProt P17612)
Excerpt: as §1

[31] = target: YANK1 (Homo sapiens (Human), UniProt Q8WU08)
Excerpt: as §1

[32] = target: MYO3A (Homo sapiens (Human), UniProt Q8NEV4)
Excerpt: as §1

[33] = target: PRKCE (Homo sapiens (Human), UniProt Q02156)
Excerpt: as §1

[34] = target: FGR (Homo sapiens (Human), UniProt P09769)
Excerpt: as §1

[35] = target: AAK1 (Homo sapiens (Human), UniProt Q2M2I8)
Excerpt: as §1

[36] = target: EGFR(L858R) (Homo sapiens (Human), UniProt P00533, L858R)
Excerpt: as §1

[37] = target: EGFR (Homo sapiens (Human), UniProt P00533)
Excerpt: as §1

[38] = target: ABL1(F317L)-phosphorylated (Homo sapiens (Human), UniProt P00519, F317L)
Excerpt: as §1

[39] = target: CASK (Homo sapiens (Human), UniProt O14936)
Excerpt: as §1

[40] = target: SRPK3 (Homo sapiens (Human), UniProt Q9UPE1)
Excerpt: as §1

Sequence of SRPK3 (Q9UPE1 whole entry): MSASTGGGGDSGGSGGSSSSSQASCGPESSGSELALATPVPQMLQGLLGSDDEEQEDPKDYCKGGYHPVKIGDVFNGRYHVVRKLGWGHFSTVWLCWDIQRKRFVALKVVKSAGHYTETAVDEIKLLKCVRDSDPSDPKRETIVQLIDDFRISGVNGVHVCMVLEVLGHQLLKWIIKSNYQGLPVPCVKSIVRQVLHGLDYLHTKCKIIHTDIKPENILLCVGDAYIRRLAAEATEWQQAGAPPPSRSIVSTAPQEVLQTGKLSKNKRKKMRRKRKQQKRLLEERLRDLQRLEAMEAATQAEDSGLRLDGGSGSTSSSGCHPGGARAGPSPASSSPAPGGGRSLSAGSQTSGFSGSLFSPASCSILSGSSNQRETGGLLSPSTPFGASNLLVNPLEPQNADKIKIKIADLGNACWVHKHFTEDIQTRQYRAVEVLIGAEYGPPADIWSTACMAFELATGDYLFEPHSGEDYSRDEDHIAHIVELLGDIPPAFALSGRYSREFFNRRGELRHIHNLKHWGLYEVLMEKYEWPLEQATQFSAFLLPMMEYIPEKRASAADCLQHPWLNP
Sequence of TRKA (P04629 33-796): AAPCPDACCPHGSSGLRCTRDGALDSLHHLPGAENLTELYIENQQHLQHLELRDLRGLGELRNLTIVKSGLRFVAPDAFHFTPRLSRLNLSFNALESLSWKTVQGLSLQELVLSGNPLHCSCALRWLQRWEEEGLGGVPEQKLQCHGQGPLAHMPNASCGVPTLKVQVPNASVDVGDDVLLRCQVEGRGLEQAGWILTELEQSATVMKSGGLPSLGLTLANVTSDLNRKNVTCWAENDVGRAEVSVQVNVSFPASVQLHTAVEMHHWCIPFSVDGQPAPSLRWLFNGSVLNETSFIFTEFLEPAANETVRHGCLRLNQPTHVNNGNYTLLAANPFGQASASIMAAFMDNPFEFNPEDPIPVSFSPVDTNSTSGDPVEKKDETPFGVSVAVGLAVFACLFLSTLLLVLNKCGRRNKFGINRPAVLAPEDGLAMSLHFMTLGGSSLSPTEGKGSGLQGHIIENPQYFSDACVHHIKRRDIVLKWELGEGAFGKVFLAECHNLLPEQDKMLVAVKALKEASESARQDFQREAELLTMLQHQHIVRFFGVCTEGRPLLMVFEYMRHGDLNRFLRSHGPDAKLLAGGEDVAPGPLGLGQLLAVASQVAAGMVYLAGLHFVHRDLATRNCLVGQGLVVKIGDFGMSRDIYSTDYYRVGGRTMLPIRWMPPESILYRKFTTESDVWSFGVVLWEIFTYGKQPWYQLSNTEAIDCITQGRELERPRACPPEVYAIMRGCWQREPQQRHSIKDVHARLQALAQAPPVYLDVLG
Sequence of ZAK (Q9NYL2 whole entry): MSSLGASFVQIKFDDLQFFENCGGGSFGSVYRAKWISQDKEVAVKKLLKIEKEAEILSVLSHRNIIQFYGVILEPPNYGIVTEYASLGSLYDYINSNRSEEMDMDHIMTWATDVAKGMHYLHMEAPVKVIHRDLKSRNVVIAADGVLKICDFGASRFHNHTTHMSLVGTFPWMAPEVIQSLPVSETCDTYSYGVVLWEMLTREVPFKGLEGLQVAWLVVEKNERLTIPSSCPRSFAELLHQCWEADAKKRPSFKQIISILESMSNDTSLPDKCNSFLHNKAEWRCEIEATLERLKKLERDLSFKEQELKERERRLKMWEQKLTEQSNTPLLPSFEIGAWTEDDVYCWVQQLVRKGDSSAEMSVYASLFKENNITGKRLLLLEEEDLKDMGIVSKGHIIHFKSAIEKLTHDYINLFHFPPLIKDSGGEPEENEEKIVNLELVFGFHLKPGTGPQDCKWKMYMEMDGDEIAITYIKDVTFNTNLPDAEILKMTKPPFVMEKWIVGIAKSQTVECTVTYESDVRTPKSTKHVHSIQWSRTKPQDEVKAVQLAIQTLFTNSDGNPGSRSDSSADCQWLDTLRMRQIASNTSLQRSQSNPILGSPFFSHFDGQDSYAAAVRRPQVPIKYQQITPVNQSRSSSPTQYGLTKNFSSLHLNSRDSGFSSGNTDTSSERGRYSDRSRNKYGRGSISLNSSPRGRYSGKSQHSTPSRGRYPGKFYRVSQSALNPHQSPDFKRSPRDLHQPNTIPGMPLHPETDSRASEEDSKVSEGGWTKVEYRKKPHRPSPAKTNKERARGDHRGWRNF
Sequence of PCTK1 (Q00536 whole entry): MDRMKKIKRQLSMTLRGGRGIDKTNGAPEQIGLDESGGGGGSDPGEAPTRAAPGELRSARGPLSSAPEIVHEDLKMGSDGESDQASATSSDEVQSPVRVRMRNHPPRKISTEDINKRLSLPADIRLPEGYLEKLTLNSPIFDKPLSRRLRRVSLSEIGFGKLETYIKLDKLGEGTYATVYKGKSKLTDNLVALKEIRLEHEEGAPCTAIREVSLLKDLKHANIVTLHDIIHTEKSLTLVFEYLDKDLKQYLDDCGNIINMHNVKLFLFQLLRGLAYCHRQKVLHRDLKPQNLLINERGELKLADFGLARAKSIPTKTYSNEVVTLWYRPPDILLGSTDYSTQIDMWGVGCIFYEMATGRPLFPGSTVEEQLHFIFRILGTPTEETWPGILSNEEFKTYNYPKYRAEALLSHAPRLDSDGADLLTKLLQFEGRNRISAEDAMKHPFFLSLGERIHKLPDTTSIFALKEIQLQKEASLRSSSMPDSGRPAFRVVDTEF
Sequence of RAF1 (P04049 whole entry): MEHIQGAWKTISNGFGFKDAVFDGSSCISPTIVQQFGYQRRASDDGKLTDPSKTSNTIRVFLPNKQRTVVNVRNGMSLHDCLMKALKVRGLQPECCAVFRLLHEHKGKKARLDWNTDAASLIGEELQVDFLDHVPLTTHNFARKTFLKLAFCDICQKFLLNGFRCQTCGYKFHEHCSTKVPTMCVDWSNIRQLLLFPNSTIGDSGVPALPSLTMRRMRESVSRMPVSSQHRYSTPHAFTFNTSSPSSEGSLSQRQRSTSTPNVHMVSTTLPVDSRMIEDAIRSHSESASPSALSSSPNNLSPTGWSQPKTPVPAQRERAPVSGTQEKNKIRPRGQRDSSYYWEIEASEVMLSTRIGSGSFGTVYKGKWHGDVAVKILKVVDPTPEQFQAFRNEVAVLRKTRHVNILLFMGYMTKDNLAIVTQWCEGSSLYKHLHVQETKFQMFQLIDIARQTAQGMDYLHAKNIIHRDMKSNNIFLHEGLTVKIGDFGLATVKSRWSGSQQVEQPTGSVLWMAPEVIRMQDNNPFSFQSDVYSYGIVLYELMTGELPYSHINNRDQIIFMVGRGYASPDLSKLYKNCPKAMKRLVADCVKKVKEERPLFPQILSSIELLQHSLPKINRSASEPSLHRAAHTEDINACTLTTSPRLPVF
Sequence of CASK (O14936 whole entry): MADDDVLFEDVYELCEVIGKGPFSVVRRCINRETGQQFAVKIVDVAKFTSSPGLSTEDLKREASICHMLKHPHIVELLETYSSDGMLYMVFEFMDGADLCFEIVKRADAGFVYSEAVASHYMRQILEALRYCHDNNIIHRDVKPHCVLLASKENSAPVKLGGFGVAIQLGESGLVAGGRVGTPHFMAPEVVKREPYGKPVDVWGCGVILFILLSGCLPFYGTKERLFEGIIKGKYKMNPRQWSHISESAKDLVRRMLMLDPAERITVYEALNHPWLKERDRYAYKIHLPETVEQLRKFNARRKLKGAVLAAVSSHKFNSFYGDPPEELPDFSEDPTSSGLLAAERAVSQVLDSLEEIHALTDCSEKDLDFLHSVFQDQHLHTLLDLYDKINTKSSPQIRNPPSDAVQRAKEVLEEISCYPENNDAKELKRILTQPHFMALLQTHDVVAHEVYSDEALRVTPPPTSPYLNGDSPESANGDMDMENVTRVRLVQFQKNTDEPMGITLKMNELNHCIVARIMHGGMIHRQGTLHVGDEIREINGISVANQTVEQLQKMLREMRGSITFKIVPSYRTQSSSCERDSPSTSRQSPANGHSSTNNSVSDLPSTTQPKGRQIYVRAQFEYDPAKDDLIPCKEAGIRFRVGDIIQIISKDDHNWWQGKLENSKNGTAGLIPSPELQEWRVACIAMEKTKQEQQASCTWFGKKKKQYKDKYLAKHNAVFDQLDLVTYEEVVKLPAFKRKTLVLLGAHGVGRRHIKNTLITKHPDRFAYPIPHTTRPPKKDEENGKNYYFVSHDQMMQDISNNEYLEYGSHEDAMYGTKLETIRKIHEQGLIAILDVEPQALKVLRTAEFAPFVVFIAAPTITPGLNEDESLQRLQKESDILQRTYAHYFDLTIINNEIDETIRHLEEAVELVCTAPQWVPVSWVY
Sequence of RIOK2 (Q9BVS4 whole entry): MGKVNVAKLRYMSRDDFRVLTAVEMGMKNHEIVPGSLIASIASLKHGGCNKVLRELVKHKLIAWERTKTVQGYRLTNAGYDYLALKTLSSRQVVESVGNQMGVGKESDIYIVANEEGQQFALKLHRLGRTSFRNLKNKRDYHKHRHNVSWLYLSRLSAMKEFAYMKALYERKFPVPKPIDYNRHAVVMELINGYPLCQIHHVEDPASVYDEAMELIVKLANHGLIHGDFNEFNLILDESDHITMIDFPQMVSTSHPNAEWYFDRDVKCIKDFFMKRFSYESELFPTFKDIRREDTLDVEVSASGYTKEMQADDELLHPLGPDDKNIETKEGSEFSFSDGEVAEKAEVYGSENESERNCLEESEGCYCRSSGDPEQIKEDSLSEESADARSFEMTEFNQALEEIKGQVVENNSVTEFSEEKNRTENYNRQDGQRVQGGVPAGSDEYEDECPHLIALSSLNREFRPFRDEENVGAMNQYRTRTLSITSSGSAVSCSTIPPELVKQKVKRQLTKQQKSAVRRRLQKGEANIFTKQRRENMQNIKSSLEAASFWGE
Sequence of RSK3(Kin.Dom.1-N-terminal) (Q15349 59-318 limits assumed): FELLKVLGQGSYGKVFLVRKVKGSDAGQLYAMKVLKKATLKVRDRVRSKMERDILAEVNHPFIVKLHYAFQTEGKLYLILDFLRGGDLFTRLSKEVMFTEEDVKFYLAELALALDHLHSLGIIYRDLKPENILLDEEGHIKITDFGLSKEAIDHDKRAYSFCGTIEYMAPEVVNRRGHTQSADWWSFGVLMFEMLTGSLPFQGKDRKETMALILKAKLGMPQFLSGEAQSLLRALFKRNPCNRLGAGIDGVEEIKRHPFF

| SMILES | remaining binding at 1 µM [1] [%] | remaining binding at 1 µM [2] [%] | remaining binding at 1 µM [3] [%] | remaining binding at 1 µM [4] [%] | remaining binding at 1 µM [5] [%] | remaining binding at 1 µM [6] [%] | remaining binding at 1 µM [7] [%] | remaining binding at 1 µM [8] [%] | remaining binding at 1 µM [9] [%] | remaining binding at 1 µM [10] [%] | remaining binding at 1 µM [11] [%] | remaining binding at 1 µM [12] [%] | remaining binding at 1 µM [13] [%] | remaining binding at 1 µM [14] [%] | remaining binding at 1 µM [15] [%] | remaining binding at 1 µM [16] [%] | remaining binding at 1 µM [17] [%] | remaining binding at 1 µM [18] [%] | remaining binding at 1 µM [19] [%] | remaining binding at 1 µM [20] [%] | further results |
| --- | --- | --- | --- | --- | --- | --- | --- | --- | --- | --- | --- | --- | --- | --- | --- | --- | --- | --- | --- | --- | --- |
| CCN1CCN(Cc2ccc(Nc3nc4ccc(Oc5ccnc(NC(C)=O)c5)cc4n3C)cc2C(F)(F)F)CC1 [Compound I-2] | 100 | 25 | 45 | 100 | 86 | 51 | 30 | 70 | 86 | 94 | 31 | 80 | 98 | 9 | 95 | 100 | 97 | 100 | 62 | 98 | remaining binding at 1 µM [21]: 84%; remaining binding at 1 µM [22]: 100%; remaining binding at 1 µM [23]: 0.1%; remaining binding at 1 µM [24]: 14%; remaining binding at 1 µM [25]: 0.1%; remaining binding at 1 µM [26]: 85%; remaining binding at 1 µM [27]: 59%; remaining binding at 1 µM [28]: 100%; remaining binding at 1 µM [29]: 64%; remaining binding at 1 µM [30]: 65%; remaining binding at 1 µM [31]: 100%; remaining binding at 1 µM [32]: 96%; remaining binding at 1 µM [33]: 100%; remaining binding at 1 µM [34]: 100%; remaining binding at 1 µM [35]: 100%; remaining binding at 1 µM [36]: 83%; remaining binding at 1 µM [37]: 79%; remaining binding at 1 µM [38]: 43%; remaining binding at 1 µM [39]: 78%; remaining binding at 1 µM [40]: 100% |
| CCN1CCN(Cc2ccc(Nc3nc4ccc(Oc5ccnc(NC(C)=O)c5)c(C)c4n3C)cc2C(F)(F)F)CC1 [Compound I-6, N-(4-(2-(4-((4-ethylpiperazin-1-yl)methyl)-3-(trifluoromethyl)phenylamino)-1,7-dimethyl-1H-benzo[d]imidazol-6-yloxy)pyridin-2-yl)acetamide] | 100 | 5.6 | 11 | 91 | 100 | 96 | 40 | 100 | 100 | 93 | 3.5 | 93 | 72 | 3.2 | 100 | 100 | 94 | 100 | 89 | 92 | remaining binding at 1 µM [21]: 68%; remaining binding at 1 µM [22]: 100%; remaining binding at 1 µM [23]: 0.2%; remaining binding at 1 µM [24]: 16%; remaining binding at 1 µM [25]: 0.35%; remaining binding at 1 µM [26]: 96%; remaining binding at 1 µM [27]: 91%; remaining binding at 1 µM [28]: 87%; remaining binding at 1 µM [29]: 91%; remaining binding at 1 µM [30]: 57%; remaining binding at 1 µM [31]: 93%; remaining binding at 1 µM [32]: 99%; remaining binding at 1 µM [33]: 92%; remaining binding at 1 µM [34]: 51%; remaining binding at 1 µM [35]: 96%; remaining binding at 1 µM [36]: 97%; remaining binding at 1 µM [37]: 100%; remaining binding at 1 µM [38]: 44%; remaining binding at 1 µM [39]: 87%; remaining binding at 1 µM [40]: 87% |
